Read-outs that look alike come from different tables or passages of the source.
System: Wistar rats
Assay type: in vivo
Protocol: In the study of antipyretic properties of the formula I compound, were taken female and male Wistar rats aged 6-7 weeks, with a body mass of 180-220 g. The number of animals in each group was 10.
The febrile reaction was caused by subcutaneous administration of a 20% suspension of baking yeast. The rectal temperature was measured with an electrothermometer prior to the introduction of yeast and 18 hours after it (the difference of these measurements is the estimated hyperthermic reaction). The preparation was administered to animals at the peak of hyperthermia once (after 18 hours). The antipyretic effect was evaluated by hyperthermia decrease 2 hours after the injection of the test substance, and then the effect dynamics was recorded at hourly intervals for 7 hours.
The introduction to rats was carried out in the amount of no more than 1 ml/100 g. The concentration of the resulting solution was 7.5 mg/ml.
The difference in temperature after preparation administration and after 18 hours of induction with yeast was taken as the parameter of hyperthermia decrease.
Animals were observed individually after administration throughout the study. […] Wilcoxon nonparametric criterion was used for statistical comparison of experimental groups. Differences were determined at the 0.05 level of significance. The statistical analysis was carried out using the R-studio program.

For `COc1ccc2cc([C@H](C)C(=O)OCc3cnc(C)c(OC(=O)[C@@H](C)c4ccc5cc(OC)ccc5c4)c3COC(=O)[C@@H](C)c3ccc4cc(OC)ccc4c3)ccc2c1` [Compound of formula I, 3-((S)-2-(6-methoxynaphth-2-yl)propanoiloxy)-4,5-bis (((S)-2-(6-methoxinaphtht-2-yl)propanoiloxy)methyl)-2-methylpyridinium (S)-2-(6-methoxynaphth-2-yl) propanoate], the Antipyretic action (20 mg/kg, both males and females) was “no antipyretic action was observed”, the “Δ t after 2 hours, (M ± SD)” value (20 mg/kg, females) was −0.07 and the “Δ t after 3 hours, (M ± SD)” value (20 mg/kg, females) was −0.27. For the same compound, the “Δ t after 4 hours, (M ± SD)” value (20 mg/kg, females) was −0.35, the “Δ t after 5 hours, (M ± SD)” value (20 mg/kg, females) was 0.34 and the “Δ t after 6 hours, (M ± SD)” value (20 mg/kg, females) was −0.01. For the same compound, the “Δ t after 7 hours, (M ± SD)” value (20 mg/kg, females) was −0.08, the “Δ t after 2 hours, (M ± SD)” value (20 mg/kg, males) was 0.13 and the “Δ t after 3 hours, (M ± SD)” value (20 mg/kg, males) was 0.24. The “Δ t after 4 hours, (M ± SD)” value (20 mg/kg, males) was 0.02, the “Δ t after 5 hours, (M ± SD)” value (20 mg/kg, males) was 0.1 and the “Δ t after 6 hours, (M ± SD)” value (20 mg/kg, males) was −0.21. For the same compound, the “Δ t after 7 hours, (M ± SD)” value (20 mg/kg, males) was 0.04, the “Level of temperature decrease” value (50 mg/kg, 3-4 hours after administration) was 0.34-0.97 °C and the “Δ t after 2 hours, (M ± SD)” value (50 mg/kg, females) was 0.87. The “Δ t after 3 hours, (M ± SD)” value (50 mg/kg, females) was 0.91, the “Δ t after 4 hours, (M ± SD)” value (50 mg/kg, females) was 0.66 and the “Δ t after 5 hours, (M ± SD)” value (50 mg/kg, females) was 0.53. The “Δ t after 6 hours, (M ± SD)” value (50 mg/kg, females) was 0.61, the “Δ t after 7 hours, (M ± SD)” value (50 mg/kg, females) was 0.5 and the “Temperature lower than before the introduction by” value (50 mg/kg, females, 2 and 3 hours after introduction) was 0.9 °C. For the same compound, the Temperature decrease (50 mg/kg, females, 4, 5, 6 and 7 hours after introduction) was 0.5-0.7 °C, the “Δ t after 2 hours, (M ± SD)” value (50 mg/kg, males) was 0.22 and the “Δ t after 3 hours, (M ± SD)” value (50 mg/kg, males) was 0.36. The “Δ t after 4 hours, (M ± SD)” value (50 mg/kg, males) was 0.39, the “Δ t after 5 hours, (M ± SD)” value (50 mg/kg, males) was 0.25 and the “Δ t after 6 hours, (M ± SD)” value (50 mg/kg, males) was 0.11. The “Δ t after 7 hours, (M ± SD)” value (50 mg/kg, males) was 0.09, the “Δ t after 2 hours, (M ± SD)” value (75 mg/kg, females) was 0.9 and the “Δ t after 3 hours, (M ± SD)” value (75 mg/kg, females) was 0.96. For the same compound, the “Δ t after 4 hours, (M ± SD)” value (75 mg/kg, females) was 1.39, the “Δ t after 5 hours, (M ± SD)” value (75 mg/kg, females) was 1.52 and the “Δ t after 6 hours, (M ± SD)” value (75 mg/kg, females) was 1.51. For the same compound, the “Δ t after 7 hours, (M ± SD)” value (75 mg/kg, females) was 1.17, the “Δ t after 2 hours, (M ± SD)” value (75 mg/kg, males) was 0.76 and the “Δ t after 3 hours, (M ± SD)” value (75 mg/kg, males) was 1.15. The “Δ t after 4 hours, (M ± SD)” value (75 mg/kg, males) was 1.38, the “Δ t after 5 hours, (M ± SD)” value (75 mg/kg, males) was 1.31 and the “Δ t after 6 hours, (M ± SD)” value (75 mg/kg, males) was 0.96. The “Δ t after 7 hours, (M ± SD)” value (75 mg/kg, males) was 0.92 and the “Temperature less than before the introduction for” value (75 mg/kg, throughout the experiment) was 0.76-1.5 °C.
